Source: patent publication US20070265341A1, “COMPOSITIONS AND METHODS FOR TREATING EYE DISORDERS AND CONDITIONS” (The Schepens Eye Research Institute Inc., priority 2004, published 2007)
Like-named read-outs stand apart in the source and are kept apart here.

Key:
C57BL/6 mice = assay: Corneal fluorescein staining (NEI grading), dry eye model (CEC + SQ scopolamine); assay type: in vivo, mouse
Experimental: Six to 10 week old C57BL/6 mice (Taconic Farms, German-town, NY) were used. The protocol was approved by the Schepens Eye Research Institute Animal Care and Use Committee, and all animals were treated according to the ARVO Statement for the Use of Animals in Ophthalmic and Vision Research. […] The controlled-environment chamber: a new mouse model of dry eye. […] Louis, Mo.) was injected SQ in the dorsal skin of mice at 9 am, 12 pm, and 3 pm; the overnight dose at 6 pm was increased to 0.75 mg/0.3 ml. The mice were placed in the CEC where they were continuously exposed to a relative humidity (RH) of <30%, airflow of 15 litres/minute and a constant temperature of 21-23° C. as described previously (Barabino et al, 2005). Dry eye was induced for variable lengths of time, ranging from 2-10 days. […] Formulations tested included a) 0.2% alpha-linolenic acid (ALA, n-3); b) 0.2% linoleic acid (LA, n-6); and c) 0.1% ALA: 0.1% LA (1:1 ratio of n3:n6, total amount of fatty acid being same as in individual fatty acid formulations). […] Forty eight hours after dry eye induction, each eye was randomized to receive one of the formulations, or the vehicle. A 1 ul eye drop was applied topically to the eye of unanaesthetized mouse once daily, from 48 hours to day 4 (total 3 doses) or to day 9 (total 8 doses) depending on the time point studied. The untreated group received no eye drops. Ocular signs of dry eye were measured 24 hours after the last dose (day 5 or day 10) following which mice were euthanized for cellular and molecular studies. […] Eyes were flushed by sterile PBS to remove excess fluorescein at 3 minutes, and examined with a slit lamp biomicroscope in cobalt blue light. Punctate staining was recorded in a masked fashion with a standardized (National Eye Institute) grading system of 0 to 3 for each of the five areas in which the corneal surface was divided. […] Kruskal Wallis and Mann Whitney tests (unpaired data set), and Wilcoxin test (paired data set) were used for statistical analysis.

IL-1α = assay: Real time PCR of cytokine transcripts in dry eye cornea and conjunctiva; assay type: in vivo, mouse
From the text: (§1) Corneal and conjunctival expression of pro-inflammatory cytokines IL-1α and TNF-α Th1 cytokines (IL-2 and IFN-γ) and Th2 cytokines (IL-4, IL-6 and IL-10), relative to the normal eyes, was studied using quantitative real time PCR. Total RNA was isolated from the whole mount corneal and conjunctival tissues (two pooled corneas per group and six pooled conjunctivae per group). A combined method of total RNA isolation was employed, using Trizol (Invitrogen, CA, catalog #15596-026) for tissue homogenization on ice, precipitation of RNA in the aqueous phase in 70% ethanol followed by subsequent extraction and purification using RNeasy Microkit (Qiagen, CA, catalogue # 74004). Isolated RNA was stored at −80° C. until future use.
(§2) The first strand cDNA was synthesized from 300 ng of total RNA with random hexamers using SuperScript™ III Reverse Transcriptase (Invitrogen, CA, Catalogue #18080) according to the manufacturer's protocol. Real-time PCR was performed with FAM-MGB dye labeled pre-designed primers (Applied Biosystems, CA) for IL-1-α (catalogue # 4329586), TNF-α (Assay ID Mm99999068_ml) and GAPDH (Assay ID Mm99999915_g1), IL-2 (Assay ID […]), IL-4 (Assay ID Mm00445259), IL-6 (Assay ID Mm00446190_ml), IL-10 (Mm00439616_ml), IFN-γ (Assay ID Mm00801778 ml) according to manufacturer's recommendations. 1 ul of cDNA was loaded in each well and assays were performed in duplicates. A nontemplate control was included in all the experiments to evaluate DNA contamination of the isolated RNA and the reagents used. The results of quantitative real-time PCR were analyzed by the comparative threshold cycle (CT) method and normalized by GAPDH as an internal control. The relative expression of cytokines at different times points was compared using one way ANOVA, post hoc test LSD with p<0.05 deemed significant.
(§3) Six to 10 week old C57BL/6 mice (Taconic Farms, German-town, NY) were used. The protocol was approved by the Schepens Eye Research Institute Animal Care and Use Committee, and all animals were treated according to the ARVO Statement for the Use of Animals in Ophthalmic and Vision Research. Dry eye was induced by placement of mice in a CEC as described above, modified with subcutaneous (“SQ”) administration of scopolamine to lead to maximal ocular dryness (Barabino S, Shen L, Chen L, Rashid S, Rolandao M, Dana M R. The controlled-environment chamber: a new mouse model of dry eye. Invest Opthalmol Vis Sci. 2005; 46: 2766-71). Briefly, 0.5 mg/0.2 ml of scopolamine hydrobromide (Sigma-Aldrich, St. Louis, Mo.) was injected SQ in the dorsal skin of mice at 9 am, 12 pm, and 3 pm; the overnight dose at 6 pm was increased to 0.75 mg/0.3 ml. The mice were placed in the CEC where they were continuously exposed to a relative humidity (RH) of <30%, airflow of 15 litres/minute and a constant temperature of 21-23° C. as described previously (Barabino et al, 2005). Dry eye was induced for variable lengths of time, ranging from 2-10 days. Age-matched mice were used as normal controls (RH>80%, no airflow and temperature 21-23° C., no scopolamine administration).
(§4) Forty eight hours after dry eye induction, each eye was randomized to receive one of the formulations, or the vehicle. A 1 ul eye drop was applied topically to the eye of unanaesthetized mouse once daily, from 48 hours to day 4 (total 3 doses) or to day 9 (total 8 doses) depending on the time point studied. The untreated group received no eye drops. Ocular signs of dry eye were measured 24 hours after the last dose (day 5 or day 10) following which mice were euthanized for cellular and molecular studies.

TNF-α = assay: as above; assay type: in vivo, mouse
From the text: as §1, §2, §3, §4

Balb/c mice [1] = assay: Cotton thread test of tear production, dry eye model (CEC + scopolamine patch); assay type: in vivo, mouse; conditions: Scop patch alone for 6 days, Day 3 and Day 6
From the text: (§5) Normal healthy 6 to 10 weeks old female Balb/c mice (Taconic Farms, German-town, NY) can be induced to have dry eye by continuously exposing them to dry environment in a controlled environmental chamber (CEC), described below. Mice in CEC were continuously exposed throughout the duration of the experiments, to low relative humidity of less than 30% (mean and standard deviation 19%±4%), high airflow (15 liters/minute) and constant temperature (21-23 Celsius). Mice in normal cages were exposed to relative humidity over 70% (mean and SD 78%±5%), no airflow and same temperature. In addition, the mice placed in CEC were also treated with scopolamine, active agent that causes pharmacological inhibition of tear secretion. The combination of CEC and scopolamine produces severe dry eye. […]
Tear production was measured with cotton thread test, impregnated with phenol red (Zone-Quick, Lacrimedics, Eastsound, Wash.). […] The tear distance in mm is read under a microscope (Zeiss S4, West Germany) using the scale of an hemacytometer. Tear secretion was measured in three groups of mice (FIG. 1). […]
(§6) Dry eye was induced by combined environmental and pharmacological effect (placing the mice in CEC and applying scopolamine patch for 6 days). […] Signs of dry eye were assessed at the end of Day 6, twelve hours after the last dose. […] […]

Balb/c mice [2] = assay: Corneal fluorescein staining (NEI grading), dry eye model (CEC + scopolamine patch); assay type: in vivo, mouse; conditions: scopolamine alone, Day 3 and Day 6
From the text: as §5, with “secretion.” for “secretion. The combination of CEC and scopolamine produces severe dry eye.”
The cornea was examined with a slit lamp biomicroscope using cobalt blue light 3 minutes after the fluorescein instillation. Punctuate staining was recorded in a masked fashion using a standardized National Eye Institute (NEI) grading system of 0-3 for each of the five areas in which the corneal surface has been divided (FIG. 2). […]
as §6

CCC=CCC=CCC=CCCCCCCCC(=O)O [ALA, 9, 12, 15 octadecatrienoic acid]
decrease in corneal fluorescein staining scores compared to the vehicle (C57BL/6 mice; day 5, once daily drop from 48 hours): 45% | decrease in corneal fluorescein staining scores compared to the vehicle (C57BL/6 mice; day 10): 62% | decrease in corneal fluorescein staining scores compared to untreated control eyes (C57BL/6 mice; day 10): 71% | conjunctival IL-α expression (IL-1α; conjunctiva, day 10): downward trend | corneal IL-1α expression compared to untreated corneas (IL-1α; cornea, day 10): significant decrease | conjunctival expression of TNF-α compared to untreated eyes (TNF-α; conjunctiva, day 10): significantly decreased | corneal TNF-α expression compared to untreated and vehicle-treated corneas (TNF-α; cornea, day 5): significant decrease | corneal TNF-α expression (TNF-α; cornea, day 10): decreased trend | decrease in CD11b+ cell number compared to the untreated group (CD11b+ cells; center of cornea, day 10): 42% | decrease in CD11b+ cell number compared to the vehicle (CD11b+ cells; center of cornea, day 10): 37% | number of CD11b+ cells compared to untreated, vehicle, LA and combined groups (CD11b+ cells; center of cornea, day 10): significantly decreased | number of CD11b+ cells relative to normal (non dry eye induced) cornea (CD11b+ cells; center of whole mount cornea, confocal images): comparable to the normal | CD11b+ cell number compared to untreated eyes (CD11b+ cells; periphery of cornea, day 10): significant decrease | CD11b+ cell number compared to vehicle (CD11b+ cells; periphery of cornea, day 10): no significant difference | decrease in CD11b+ cell number compared to the untreated group (CD11b+ cells; periphery of cornea, day 10): 37% | decrease in CD11b+ cell number compared to the vehicle (CD11b+ cells; periphery of cornea, day 10): 21%

CN1[C@@H]2C[C@@H](OC(=O)[C@H](CO)c3ccccc3)C[C@H]1[C@@H]1O[C@@H]12 [Scop patch, scopolamine]
tear secretion compared to the baseline (Balb/c mice [1]): markedly decreased | corneal fluorescein staining compared to the controls (Balb/c mice [2]): significant increase

CCCCC/C=C\C/C=C\CCCCCCCC(=O)O [LA, 9,12-octadecandienoic acid]
corneal fluorescein staining scores compared to vehicle-treated eyes (C57BL/6 mice; day 5): no significant difference | corneal fluorescein staining scores compared to vehicle and untreated eyes (C57BL/6 mice; day 10): no difference | IL-1α expression, between untreated, vehicle and treated eyes (IL-1α; cornea and conjunctiva): No significant difference | TNF-α expression, between untreated, vehicle and treated eyes (TNF-α; cornea and conjunctiva): No significant difference
